Assays:
[1] = system: HeLa cells; test: Cell death assay with HeLa cells, qualitative (phase contrast microscopy), TNF-α/CHX challenge; assay type: cell-based; conditions: for cytoprotection of HeLa cells from apoptotic effects of TNF-α and CHX (microscopy): 24 hour incubation
Procedure: The cytoprotective properties of Cbz-Val-Asp(OMe)CH2F were tested using HeLa cells challenged with tumor necrosis factor-alpha (TNF-α) and cycloheximide (CHX). This is a well-characterized cell culture model of apoptosis which is commonly used to analyze anti-apoptotic agents. Two types of experiments were performed: a qualitative assessment of cell death by visualization of the cells using phase contrast microscopy; and a quantitative assessment of cell death using the fluorescent dye calcein AM.
For photomicroscopy, HeLa cells are seeded in 12-well multidishes at a density of 100,000 cells per well in Minimal Essential Medium containing 2 mM glutamine and 10% fetal bovine serum. 24 hours later the plating medium is removed and fresh medium is added containing the cytoprotective test compound at various concentrations. The cells are pre-incubated with test compound for 2 hours at 37° C. in a CO2 incubator and then TNF-α and CHX are added at final concentrations of 25 ng/mL and 30 μg/mL, respectively. After a 24 hour incubation period, the cells are examined visually for evidence of cell death based on cell shape and degree of adherence. Cells are considered dead if they have become rounded up and phase bright and have detached from the substratum. Cells are considered alive if they have retained their normal morphology and remain attached to the substratum.
All of these compounds are the methyl ester derivatives. […] At 50 μM, the related peptides BOC-Asp(OMe)-CH2F (FIG. 1C) and Cbz-Glu(OMe)-Val-Asp(OMe)-CH2F (FIG. 1E) are also protective.

[2] = target: T1, Caspase-3 (Homo sapiens, UniProt P42574); test: Caspase-3 activity of the dipeptide inhibitors (Table III); assay type: biochemical
T1 sequence (P42574 29-175 limits assumed): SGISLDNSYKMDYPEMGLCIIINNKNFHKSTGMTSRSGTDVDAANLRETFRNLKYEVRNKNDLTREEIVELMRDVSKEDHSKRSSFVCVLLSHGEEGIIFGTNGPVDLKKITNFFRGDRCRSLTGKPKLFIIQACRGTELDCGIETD

[3] = target: T2, Caspase-8 (Homo sapiens, UniProt Q14790); test: Recombinant caspase assay with Ac-DEVD-AMC, caspase-8; assay type: biochemical; conditions: 10 μM Ac-DEVD-AMC, 30 minutes at 37° C.
T2 construct: purchased PharMington (PharMingen, a Becton division company, San Diego, Calif.)
T2 sequence (Q14790 217-374 limits assumed): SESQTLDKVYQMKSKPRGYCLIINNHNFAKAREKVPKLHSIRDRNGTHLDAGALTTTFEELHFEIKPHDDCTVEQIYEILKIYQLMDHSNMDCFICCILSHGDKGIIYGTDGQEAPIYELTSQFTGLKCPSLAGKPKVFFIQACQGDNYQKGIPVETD
Procedure: (§1) The inhibitory activity of Cbz-Val-Asp-CH2F in recombinant caspase 3, 6, 7 and 8 obtained from PharMington (a Becton division company, San Diego, Calif.) were measured using Ac-DEVD-AMC (SEQ ID NO:1). The amount of each enzyme per assay was as following: 1 ng caspase3, 15 ng caspase6, 2 ng caspase7 and 60 ng caspase8. The enzyme reaction was conducted in 96-well plate using a caspase buffer (20 mM PIPES, 100 mM NaCl, 10 mM DTT, 1 mM EDTA, 0.1% CHAPS and 10% sucrose, pH 7.2) and the reaction was initiated by adding 10 μM Ac-DEVD-AMC (SEQ ID NO:1) (purchased from Quality Controlled Biochemicals, Inc. Hopkinton, Mass.). Twelve concentrations of Cbz-Val-Asp-CH2F ranged from 30 μM to […] were tested after incubation of the compound with recombinant caspases for 30 minutes at 37° C. […] The data was analyzed using GraphPrism software.

[4] = system: DNA laddering in Jurkat cells; test: DNA laddering in antiFas-treated Jurkat cells; assay type: cell-based, human; conditions: antiFas 100 ng/mL for 4 hours
Text: In the later stages of apoptosis, cells begin to literally fall apart as pieces of the cytoplasm are shed (through blebbing) and the nucleus is disassembled. One of the hallmarks of nuclear disassembly is the cleavage of genomic DNA into nucleosome-sized fragments (termed “DNA laddering”). DNA laddering, like other late stage apoptotic events, is considered to be irreversible, so it is important to determine whether an anti-apoptotic drug can prevent its occurrence.
The ability of Z-VD-fmk to block DNA laddering was tested using antiFas-treated Jurkat cells. Jurkat cells were plated in 60 mm dishes at a density of 5×10^6 cells and pre-incubated with varying concentrations of Z-VD-fmk. They were then challenged with antiFas at 100 ng/mL for 4 hours, harvested, and pelleted and washed with PBS twice. Genomic DNA was isolated using the method of Eldadah et al. (1996). Briefly, the cells were lysed in 2 mL of 7M guanidine HCl and mixed with 1 mL of Wizard miniprep DNA purification resin (Promega). The resin/DNA complex was washed twice with buffer and the DNA was eluted in TE. 1 to 2 μg of this DNA sample was electrophoresed on a 1% agarose/TBE gel and the gel was stained with ethidium bromide.
Vehicle treated cells which were challenged with antiFas show a characteristic laddering pattern of DNA extending down to about 300 bp. […]

[5] = system: PARP cleavage in Jurkat cells; test: Effect of Z-VD-fmk on PARP cleavage in antiFas-treated Jurkat cells (Example 24); assay type: cell-based, human
Procedure: Poly(ADP)ribose polymerase (PARP) was one of the first caspase-3 substrates identified and the cleavage of PARP is still considered to be a near-universal marker for caspase-3 activation and caspase-mediated apoptosis. The ability of an anti-apoptotic compound to block PARP cleavage is therefore a useful indicator of its ability to inhibit apoptosis. The potency of Z-VD-fmk in a PARP cleavage assay was tested using antiFas-treated Jurkat cells. 2×10^6 Jurkat cells were seeded in each well of a 6-well dish and pre-incubated with test compounds for 30 minutes. The cells were then challenged with 500 ng/mL of an agonistic antiFas antibody or PBS for 4 hours. The cells were then harvested, pelleted gently, washed two times with PBS and lysed in RIPA buffer. Aliquots of the lysate were analyzed by SDS-PAGE and the proteins were transferred to PVDF membranes for Western blotting. The primary antibody was a polyclonal antiPARP serum which cross-reacts with both full-length PARP and the caspase-3-generated cleavage product.

[6] = target: T1, Caspase-3; test: Recombinant caspase assay with Ac-DEVD-AMC, caspase-3; assay type: biochemical; conditions: 10 μM Ac-DEVD-AMC, 30 minutes at 37° C.
Procedure: as §1

[7] = target: T3, Caspase-7 (Homo sapiens, UniProt P55210); test: Recombinant caspase assay with Ac-DEVD-AMC, caspase-7; assay type: biochemical; conditions: 10 μM Ac-DEVD-AMC, 30 minutes at 37° C.
T3 construct: purchased PharMington (PharMingen, a Becton division company, San Diego, Calif.)
T3 sequence (P55210 24-198 limits assumed): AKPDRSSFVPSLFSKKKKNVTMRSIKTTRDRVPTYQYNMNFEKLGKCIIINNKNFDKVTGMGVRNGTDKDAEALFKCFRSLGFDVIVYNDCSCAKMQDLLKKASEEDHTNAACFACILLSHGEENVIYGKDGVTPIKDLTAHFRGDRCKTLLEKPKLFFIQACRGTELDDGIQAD
Procedure: as §1

SMILES	cytoprotection of HeLa cells from apoptotic effects of TNF-α and CHX (microscopy) ([1]; 0.5 μM)	cytoprotection of HeLa cells from apoptotic effects of TNF-α and CHX (microscopy) ([1]; 5 μM)	cytoprotection of HeLa cells from apoptotic effects of TNF-α and CHX (microscopy) ([1]; 50 μM)	protective concentration, fold lower than other putative anti-apoptotic agents ([1]; HeLa cells, TNF-α/CHX-induced apoptosis)	IC50 [2]	IC50 [3]	dose inhibiting DNA ladder formation [4]	inhibition of PARP cleavage ([5]; 50 nM, antiFas-treated Jurkat cells)	inhibition of PARP cleavage ([5]; 250 nM, antiFas-treated Jurkat cells)	inhibition of PARP cleavage ([5]; 500 nM, antiFas-treated Jurkat cells)	potency as inhibitor of PARP cleavage in intact cells, fold relative to Z-VAD-fmk ([5]; Jurkat cells)	IC50 ([5]; antiFas-treated Jurkat cells, read-out: IC50, inhibition of PARP cleavage (whole-cell apoptosis model))	IC50 [6]	IC50 [7]
COC(=O)CC(NC(=O)C(NC(=O)OCc1ccccc1)C(C)C)C(=O)CF (stereo not drawn) [Cbz-Val-Asp(OMe)-CH2F, Z-Val-Asp-fmk Methyl Ester]	still an effective cytoprotectant	surprisingly strong cytoprotective action	completely protects	10 to 100 fold	–	–	–	–	–	–	–	–	–	–
CC(C)[C@H](NC(=O)OCc1ccccc1)C(=O)NC(CC(=O)O)C(=O)CF (stereo partly drawn) [Cbz-Val-Asp-CH2F, Z-Val-Asp-fmk]	–	–	–	–	0.04 µM	0.0072 µM	≤ 50 nM	still retains much of its inhibitory activity	completely inhibits	completely inhibits	at least 10 fold	< 0.05 µM	0.0198 µM	0.0068 µM
